The values that follow are results of earlier work, collected in US12605434B2, “Composition for preventing or treating autoimmune diseases” (STATENS SERUM INSTITUT, priority 2021, dated 2026).

This series concerns Th17 polarization.

Turning to `CC1=C(/C=C/C(C)=C/C=C/C(C)=C/C(=O)O)C(C)(C)CCC1` [ATRA, all-trans retinoic acid], where the note is “Elias_2008, Kwok_2012”, the FoxP3 expression result is given as “enhancing FoxP3 expression” and the Th17 polarization result is given as “inhibit the Th17 polarization”. In addition, under “Mucinda_2007”, the “RORγT in T cells” value is given as “reduction of RORγT”.
